Results taken from PubChem BioAssay AID2060500 (Molecular Pharmacology Branch, DTP, NCI, 2025).
One block for each molecule: values may come before it.

System: 596521-263-R-J1-PDC complex spheroids, viability % of control
Assay: Anticancer human tumor 596521-263-R-J1-PDC patient-derived soft tissue sarcoma cell line growth inhibition [GQUAD]
Settings: for IC50: curve of first compound; for viability, T/C: stronger effect = lower value
How it was run: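 Multi-cell-type spheroids of tumor cells with HUVEC and mesenchymal stem cells, treated with drug combinations. Concentrations descend in half-log steps from near clinical Cmax, or from 10 microM where Cmax is unknown; viability read-out.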

[1] = second compound 0.0316 µM, first compound 0.0316 µM
[2] = second compound 0.0316 µM, first compound 0.1 µM
[3] = second compound 0.0316 µM, first compound 0.316 µM
[4] = second compound 0.0316 µM, first compound 1 µM
[5] = second compound 0.0316 µM, first compound 3.16 µM
[6] = second compound 0.0316 µM, first compound 10 µM
[7] = second compound 0.1 µM, first compound 0.0316 µM
[8] = second compound 0.1 µM, first compound 0.1 µM
[9] = second compound 0.1 µM, first compound 0.316 µM
[10] = second compound 0.1 µM, first compound 1 µM
[11] = second compound 0.1 µM, first compound 3.16 µM
[12] = second compound 0.1 µM, first compound 10 µM
[13] = second compound 0.316 µM, first compound 0.0316 µM
[14] = second compound 0.316 µM, first compound 0.1 µM
[15] = second compound 0.316 µM, first compound 0.316 µM
[16] = second compound 0.316 µM, first compound 1 µM
[17] = second compound 0.316 µM, first compound 3.16 µM
[18] = second compound 0.316 µM, first compound 10 µM
[19] = second compound 1 µM, first compound 0.0316 µM
[20] = second compound 1 µM, first compound 0.1 µM
[21] = second compound 1 µM, first compound 0.316 µM
[22] = second compound 1 µM, first compound 1 µM
[23] = second compound 1 µM, first compound 3.16 µM
[24] = second compound 1 µM, first compound 10 µM
[25] = second compound 3.16 µM, first compound 0.0316 µM
[26] = second compound 3.16 µM, first compound 0.1 µM
[27] = second compound 3.16 µM, first compound 0.316 µM
[28] = second compound 3.16 µM, first compound 1 µM
[29] = second compound 3.16 µM, first compound 3.16 µM
[30] = second compound 3.16 µM, first compound 10 µM
[31] = second compound 10 µM, first compound 0.0316 µM
[32] = second compound 10 µM, first compound 0.1 µM
[33] = second compound 10 µM, first compound 0.316 µM
[34] = second compound 10 µM, first compound 1 µM
[35] = second compound 10 µM, first compound 3.16 µM
[36] = second compound 10 µM, first compound 10 µM
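Further: spheroids exposed to drugs for 7 days before viability reading.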
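Wherever viability, T/C is given: 100% = DMSO vehicle control viability.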

SMILES: C#Cc1c(F)ccc2cc(O)cc(-c3ncc4c(N5CC6CCC(C5)N6)nc(OCC56CCCN5CC(F)C6)nc4c3F)c12 (stereo not drawn) + CN(C)c1ccc(Nc2c3ccc(NC(=O)CCN4CCCC4)cc3nc3cc(NC(=O)CCN4CCCC4)ccc23)cc1
- IC50 (second compound 0.0316 µM): > 10 µM
- IC50 (second compound 0.1 µM): > 10 µM
- IC50 (second compound 0.316 µM): > 10 µM
- IC50 (second compound 1 µM): > 10 µM
- IC50 (second compound 3.16 µM): > 10 µM
- IC50 (second compound 10 µM): 4.15 µM
- viability, T/C [1]: 105%
- viability, T/C [2]: 95.1%
- viability, T/C [3]: 98.7%
- viability, T/C [4]: 115%
- viability, T/C [5]: 106%
- viability, T/C [6]: 99.2%
- viability, T/C [7]: 95.5%
- viability, T/C [8]: 96.1%
- viability, T/C [9]: 107%
- viability, T/C [10]: 108%
- viability, T/C [11]: 112%
- viability, T/C [12]: 92.3%
- viability, T/C [13]: 103%
- viability, T/C [14]: 106%
- viability, T/C [15]: 98.5%
- viability, T/C [16]: 97.3%
- viability, T/C [17]: 104%
- viability, T/C [18]: 83.1%
- viability, T/C [19]: 100%
- viability, T/C [20]: 111%
- viability, T/C [21]: 92.5%
- viability, T/C [22]: 88.6%
- viability, T/C [23]: 104%
- viability, T/C [24]: 96.8%
- viability, T/C [25]: 87.4%
- viability, T/C [26]: 87.2%
- viability, T/C [27]: 98.7%
- viability, T/C [28]: 90.5%
- viability, T/C [29]: 86.6%
- viability, T/C [30]: 78.3%
- viability, T/C [31]: 64.6%
- viability, T/C [32]: 66%
- viability, T/C [33]: 70.7%
- viability, T/C [34]: 64.2%
- viability, T/C [35]: 54.2%
- viability, T/C [36]: 36.8%

- IC50 (second compound 0.0316 µM): 8.98 µM
- IC50 (second compound 0.1 µM): 6.39 µM
- IC50 (second compound 0.316 µM): > 10 µM
- IC50 (second compound 1 µM): 6.21 µM
- IC50 (second compound 3.16 µM): 0.103 µM
- IC50 (second compound 10 µM): < 0.0316 µM
SMILES: CC1COCCN1c1cc(C2(S(C)(=N)=O)CC2)nc(-c2ccnc3[nH]ccc23)n1 (stereo not drawn) + Cc1cnc(CNC(=O)c2c(=O)c3ccc(N4CCCN(C)CC4)nc3n3c2sc2ccccc23)cn1
- viability, T/C [1]: 91.2%
- viability, T/C [2]: 101%
- viability, T/C [3]: 86.4%
- viability, T/C [4]: 87.3%
- viability, T/C [5]: 67.1%
- viability, T/C [6]: 48.3%
- viability, T/C [7]: 84%
- viability, T/C [8]: 93.5%
- viability, T/C [9]: 76.1%
- viability, T/C [10]: 72.5%
- viability, T/C [11]: 59.4%
- viability, T/C [12]: 44.2%
- viability, T/C [13]: 83%
- viability, T/C [14]: 75.5%
- viability, T/C [15]: 66.7%
- viability, T/C [16]: 72.1%
- viability, T/C [17]: 55.6%
- viability, T/C [18]: 51.8%
- viability, T/C [19]: 58%
- viability, T/C [20]: 64.6%
- viability, T/C [21]: 66.7%
- viability, T/C [22]: 56.8%
- viability, T/C [23]: 53%
- viability, T/C [24]: 47.4%
- viability, T/C [25]: 57%
- viability, T/C [26]: 50.5%
- viability, T/C [27]: 48.1%
- viability, T/C [28]: 45.1%
- viability, T/C [29]: 51.9%
- viability, T/C [30]: 47%
- viability, T/C [31]: 46.6%
- viability, T/C [32]: 41.9%
- viability, T/C [33]: 49.3%
- viability, T/C [34]: 39.4%
- viability, T/C [35]: 40.3%
- viability, T/C [36]: 37.6%

- IC50 (second compound 0.0316 µM): 1.72 µM
- IC50 (second compound 0.1 µM): 1.32 µM
- IC50 (second compound 0.316 µM): 1.01 µM
- IC50 (second compound 1 µM): 0.83 µM
- IC50 (second compound 3.16 µM): < 0.0316 µM
- IC50 (second compound 10 µM): < 0.0316 µM
SMILES: CC(C)(O)C1CCC(Nc2ccc3ncc(-c4cccc(C(F)(F)F)c4)n3n2)CC1 (stereo not drawn) + Cc1cnc(CNC(=O)c2c(=O)c3ccc(N4CCCN(C)CC4)nc3n3c2sc2ccccc23)cn1
- viability, T/C [1]: 89.8%
- viability, T/C [2]: 82.3%
- viability, T/C [3]: 88.3%
- viability, T/C [4]: 77.7%
- viability, T/C [5]: 18.8%
- viability, T/C [6]: 14.4%
- viability, T/C [7]: 81.9%
- viability, T/C [8]: 79.9%
- viability, T/C [9]: 74.2%
- viability, T/C [10]: 59.5%
- viability, T/C [11]: 20.5%
- viability, T/C [12]: 18.2%
- viability, T/C [13]: 72.3%
- viability, T/C [14]: 69.5%
- viability, T/C [15]: 68.6%
- viability, T/C [16]: 50.5%
- viability, T/C [17]: 18.4%
- viability, T/C [18]: 15.9%
- viability, T/C [19]: 57.6%
- viability, T/C [20]: 53.6%
- viability, T/C [21]: 63.1%
- viability, T/C [22]: 47.8%
- viability, T/C [23]: 21.7%
- viability, T/C [24]: 15.1%
- viability, T/C [25]: 46.6%
- viability, T/C [26]: 46.5%
- viability, T/C [27]: 51.7%
- viability, T/C [28]: 45.2%
- viability, T/C [29]: 0.12%
- viability, T/C [30]: 0.13%
- viability, T/C [31]: 33.3%
- viability, T/C [32]: 13.8%
- viability, T/C [33]: 41.2%
- viability, T/C [34]: 0.19%
- viability, T/C [35]: 0.23%
- viability, T/C [36]: 0.18%

SMILES: CC(C)n1c(=O)n(C)c2cnc3cc(F)c(-c4ccc(OCCCN5CCCCC5)nc4)cc3c21 + Cc1[nH]c2ccc(F)cc2c1-c1nc2c3cccnc3c3ncccc3c2[nH]1
- IC50 (second compound 0.0316 µM): > 10 µM
- IC50 (second compound 0.1 µM): > 10 µM
- IC50 (second compound 0.316 µM): > 10 µM
- IC50 (second compound 1 µM): > 10 µM
- IC50 (second compound 3.16 µM): > 10 µM
- IC50 (second compound 10 µM): > 10 µM
- viability, T/C [1]: 100%
- viability, T/C [2]: 82.2%
- viability, T/C [3]: 81.5%
- viability, T/C [4]: 87.1%
- viability, T/C [5]: 80%
- viability, T/C [6]: 73.4%
- viability, T/C [7]: 95%
- viability, T/C [8]: 112%
- viability, T/C [9]: 91%
- viability, T/C [10]: 93.9%
- viability, T/C [11]: 86%
- viability, T/C [12]: 64.9%
- viability, T/C [13]: 106%
- viability, T/C [14]: 102%
- viability, T/C [15]: 91.4%
- viability, T/C [16]: 83.7%
- viability, T/C [17]: 81.9%
- viability, T/C [18]: 57.6%
- viability, T/C [19]: 85%
- viability, T/C [20]: 89%
- viability, T/C [21]: 97%
- viability, T/C [22]: 89.4%
- viability, T/C [23]: 86.8%
- viability, T/C [24]: 72.1%
- viability, T/C [25]: 87.9%
- viability, T/C [26]: 90.3%
- viability, T/C [27]: 81.4%
- viability, T/C [28]: 76.3%
- viability, T/C [29]: 80.6%
- viability, T/C [30]: 53%
- viability, T/C [31]: 74.4%
- viability, T/C [32]: 78.6%
- viability, T/C [33]: 79.8%
- viability, T/C [34]: 79.1%
- viability, T/C [35]: 62.1%
- viability, T/C [36]: 50.7%
